The values that follow come from patent US20260335223A1, “Topical Copolymer Formulations for Hydrophobic Drug Delivery” (1376683 B.C. LTD, priority 2023, published 2026).

Converted amounts (≈) assume the structure as drawn.

A short description of data set [1]: Skin permeation, Franz diffusion cell. The conditions noted are these: 3 hours.
Description: To collect the data illustrated in this Example, fresh pig skin is placed on a Franz diffusion cell and the formulation of interest is applied to the outer skin surface. After three hours the cell is dismantled and the exposed circular area excised. […] The amount of drug in each section is then quantitated and expressed at mass of drug/gram of tissue.
For cannabinoid aqueous gel preparation for skin permeation study and therapeutic efficacy studies, a water-based gel comprised of water, phenoxyethanol, ethylhexyl glycerin, acrylates/C10-30 alkyl acrylate crosspolymer, sodium hydroxide and allantoin, was used as the gel base. Gel base and diblock copolymer were weighed, mixed together and heated using a microwave for 4 seconds. A homogenous gel containing diblock copolymer was achieved via levigation of the mixture. Gel base without diblock copolymer was weighed and used for the control formula. Commercial cannabinoid-containing extracts containing known quantities of cannabinoid were weighed and dissolved in a pre-weighed amount of cacao butter over 45 °C heat. The cacao butter cannabinoid mixture was then weighed and incorporated into the gel base, with or without diblock copolymer, via levigation to produce the final gel samples. Cannabinoid content of the final gel samples was analyzed using HPLC. […] Gel samples were stored in air-tight containers at 4 °C until the time of use.
For carboxymethyl cellulose (CMC) gel and Glaxal® base preparation for skin permeation study of cannabidiol (CBD), curcumin, capsaicin and finasteride, CMC gel was made using medium viscosity CMC as a 2% w/v aqueous solution following overnight stirring. […] For CMC preparations containing DBC, DBC was weighed into a glass vial and a small volume of the drug of interest in acetonitrile:methanol (50:50) was added to dissolve all. The solution was then dried for 2 hours in a warm oven (50 °C). In all cases the ratio of DBC:drug was 95:5. A known weight of CMC gel was then added to the warmed vial containing the dried DBC/drug mixture and vortexed to disperse and dissolve all drug. Glaxal® base was used as received. Glaxal® base containing drug was prepared by first weighing drug and dissolving in a known volume of ethanol or methanol. The ethanol or methanol drug solution was then added to a weighed amount of Glaxal® base followed by levigation of the mixture. For CBD, capsaicin, docetaxel and finasteride, it was not possible to prepare CMC gels without the use of DBC, due to drug insolubility. Therefore Glaxal® base preparations containing these drugs were employed as DBC-free comparison groups (control) for skin permeation studies.
For carboxymethyl cellulose (CMC) gel and Glaxal® base preparation for skin permeation study of docetaxel, 2% CMC gel was prepared as described above. Docetaxel (DTX) 6 mg was weighed into 190 μL of acetonitrile and 10 μL of 3H radiolabeled DTX was added. Then 66 μL (i.e., 2 mg of drug) was pipetted into a vial with 40 mg of DBC to dissolve all. The contents were dried down and 1 mL of warm 2% CMC gel was added with vortexing to dissolve all DBC and drug as a micellar solution. For Glaxal® paste 66 μL of the drug solution was dried down to approximately 20 μL and 1 gram of Glaxal® base added to disperse the drug.
Fresh pig skin was obtained from a butcher and defatted to 5 mm thickness and shaved. 2 cm^2 pieces were cut with scissors and placed on Franz diffusion cells filled with PBS and clamped. 100 mg of each formulation was weighed and placed on top of the tissue and capped. The cells were placed in a 37 °C humid incubator for three hours and then dismantled. The tissue was washed three times with PBS and the centre drug-loaded circle of tissue was cut out with scissors and snap frozen. Tissues were sectioned by cryosectioning into 50 μm cuts pooled into groups of five.
Data set [2] is described as follows: Aqueous solubility with/without diblock copolymer (visual, film rehydration).
Protocol: In these studies the cannabinoid and diblock copolymer are dissolved in ethanol and dried to a film. Warm water is added and solubility is assessed by an optically clear solution or via HPLC or UV/Vis spectrophotometry.
Specific methodologies for aqueous solubility studies were as follows. Drug solutions having a concentration of 10 mg/mL were prepared by weighing drug and dissolving in an appropriate amount of ethanol in glass vials. Control drug samples (no diblock copolymer) were prepared by measuring 1 mL of room temperature distilled water in a glass vial and adding an appropriate volume of 10 mg/mL ethanol drug solution, followed by gentle mixing.
Drug samples with diblock copolymer (60:40 MePEG: PLLA, MW 3333 Da “DBC3333”; 57:43 MePEG:PCL, MW 1320 Da “[COMPOUND LEFT OUT]”; 40:60 MePEG:PCL, MW 1890 Da “PCL10”; 30:70 MePEG:PCL, MW 12000 Da “PCL61”) were prepared by weighing diblock copolymer into glass vials then adding 800 microlitres ethanol followed by an appropriate volume of 10 mg/mL ethanol drug solution. The diblock copolymer was dissolved in the ethanol solution via gentle mixing and the solvent was then evaporated via warm oven heating at approximately 50 °C. Once completely dry, 1 ml distilled water was added to the vials followed by gentle mixing. All vials were capped and left at room temperature for 12 hours, at which time the vials were photographed for evidence of precipitation.
Data set [3] can be described thus: Preparation of homogenous aqueous carboxymethyl cellulose (CMC) gel. The format is physicochemical. The text has this: This Example illustrates that DBC3333 allowed for CBD, CBN, finasteride and docetaxel to be prepared within aqueous carboxymethyl cellulose (CMC) gels for topical use. […]
For data set [4] the following is noted: background statement; cited from earlier work.
A short description of data set [5]: Limit of aqueous solubility with/without PCL25 (HPLC or UV/VIS). The format is physicochemical. Conditions: water. The protocol: Aqueous solubility studies involving diblock copolymer PCL25 (63:37 MePEG:PCL MW 7900 Da) were carried out as follows. 1 mg of drug (either paclitaxel, capsaicin or curcumin) was added to glass vials, designated as either “control” or “diblock copolymer”. Diblock copolymer was omitted from control vials and 100 mg PCL25 was added to diblock copolymer vials. The contents of all vials were then dissolved in 300 microlitres of acetonitrile. The contents were dried at 60 °C for two hours and then 1 mL of warm water (40 °C) was added with vortexing for five minutes. To determine the limit of drug solubility, the contents of each vial were then placed in a microcentrifuge tube and centrifuged at 14000×g for 3 minutes to sediment any undissolved solids. The supernatant was diluted 50% in acetonitrile and the drug was quantitated by HPLC for paclitaxel and capsaicin or by UV/VIS spectrometry (420 nm) for curcumin after 100 fold dilution in acetonitrile for this drug. HPLC conditions were detection at 228 nm for both drugs and a mobile phase of 60:40 (paclitaxel) or 50:50 (capsaicin) acetonitrile:water flowing at 1 mL/min. Calibration standard for all drugs were run in acetonitrile.

Where [6] appears, read: topical, with DBC3333 vs formulation without.
Where [7] appears, read: control, no diblock copolymer, drug 1 μg/mL.
The mark [8] stands for this setting: control, no diblock copolymer, drug 10 μg/mL.
Setting [9] is: control, no diblock copolymer, drug 100 μg/mL.
The mark [10] stands for this setting: control, no diblock copolymer, drug 250 μg/mL.
Where [11] appears, read: control, no diblock copolymer, drug 500 μg/mL.
The mark [12] stands for this setting: control, no diblock copolymer, drug 1000 μg/mL.
[13] abbreviates: diblock 0 mg/ml, drug 0.5 mg/ml.
Where [14] appears, read: diblock (name withheld) 50 mg/ml, drug 1 mg/ml.
The mark [15] stands for this setting: diblock (name withheld) 50 mg/ml, drug 2 mg/ml.
[16] abbreviates: diblock (name withheld) 50 mg/ml, drug 3 mg/ml.
The mark [17] stands for this setting: diblock (name withheld) 50 mg/ml, drug 4 mg/ml.
Where [18] appears, read: with DBC3333 20 mg/mL, drug 250 μg/mL.
The mark [19] stands for this setting: with DBC3333 20 mg/mL, drug 500 μg/mL.
Where [20] appears, read: with DBC3333 20 mg/mL, drug 1000 μg/mL.
[21] abbreviates: with DBC3333 20 mg/mL, drug 2000 μg/mL.
[22] abbreviates: with DBC3333 20 mg/mL, drug 3000 μg/mL.
The mark [23] stands for this setting: with DBC3333 50 mg/mL, drug 1000 μg/mL.
The mark [24] stands for this setting: with DBC3333 50 mg/mL, drug 2000 μg/mL.
[25] abbreviates: with DBC3333 50 mg/mL, drug 3000 μg/mL.
Setting [26] is: with diblock copolymer PCL25 100 mg/mL.
[27] abbreviates: control, no diblock copolymer, drug 300 μg/mL.
Where [28] appears, read: control, no diblock copolymer, drug 600 μg/mL.
Setting [29] is: with DBC3333 50 mg/mL, drug 300 μg/mL.
[30] abbreviates: with DBC3333 50 mg/mL, drug 600 μg/mL.

One may read the Solubility as how much of the substance goes into solution per volume. Read a high Solubility as a readily soluble substance. On to `CCCCCc1cc2c(c(O)c1C(=O)O)[C@@H]1C=C(C)CC[C@H]1C(C)(C)O2` [THCA, tetrahydrocannabinolic acid], for which the Skin permeation entry in data set [1] (setting [6]) is recorded as “enhanced skin permeation”. Besides, the Aqueous solubility entry in data set [2] (setting [7]) is recorded as “Soluble”; in data set [2] (setting [8]), “Insol”; in data set [2] (setting [9]), “Insol”; in data set [2] (setting [10]), “Insol”; in data set [2] (setting [11]), “Insol”; in data set [2] (setting [12]), “Insol”. Besides, the Aqueous solubility result in data set [2] (setting [18]) is “Soluble”; in data set [2] (setting [19]) it was “Soluble”; in data set [2] (setting [20]), “Soluble”; in data set [2] (setting [21]) it was “Partially”; in data set [2] (setting [22]), “Insol”. For the same compound, the Solubility result in data set [2] (setting [13]) is listed as “Insol”; in data set [2] (diblock 0 mg/ml, drug 1 mg/ml), “Insol”; in data set [2] (setting [14]) it was “soluble”; in data set [2] (setting [15]), “soluble”; in data set [2] (setting [16]), “soluble”; in data set [2] (setting [17]) it was “Soluble”.

Take `CCCCCc1cc(O)c2c(c1)OC(C)(C)c1ccc(C)cc1-2` [CBN, cannabinol]: the “Preparation of homogenous CMC gel” value is “allowed” in data set [3] (with DBC3333) and “not possible to prepare homogenous CMC gel preparations” in data set [3] (without diblock copolymer). Moreover, the Skin permeation result in data set [1] (setting [6]) is given as “enhanced skin permeation”. Besides, the Water solubility in data set [4] was about 1 µg/mL.

With `CCCCCc1cc(O)c2c(c1)OC(C)(CCC=C(C)C)C=C2` (stereo not drawn) [CBC, cannabichromene], the Water solubility in data set [4] is about 1 µg/mL.

As to `CCCCCc1cc(O)c2c(c1)OC(C)(C)[C@@H]1CCC(C)=C[C@@H]21` [THC, tetrahydrocannabinol], the Skin permeation entry in data set [1] (setting [6]) is “enhanced skin permeation”. For the same compound, in data set [4], the Water solubility was about 1 µg/mL. The Aqueous solubility result in data set [2] (setting [7]), in data set [2] (setting [8]), in data set [2] (setting [9]), in data set [2] (setting [10]), in data set [2] (setting [11]) and in data set [2] (setting [12]) was “Insol” throughout. Besides, the Aqueous solubility entry is on record as “Insol” in data set [2] (control, no diblock copolymer, drug 2000 μg/mL); “Soluble” in data set [2] (setting [18]); “Soluble” in data set [2] (setting [19]); “Partially” in data set [2] (setting [20]); “Insol” in data set [2] (setting [21]); “Insol” in data set [2] (setting [22]). The Aqueous solubility result in data set [2] (with DBC3333 50 mg/mL, drug 500 μg/mL) is “Soluble”; in data set [2] (setting [23]), “Soluble”; in data set [2] (setting [24]), “Soluble”; in data set [2] (setting [25]), “Partially”; in data set [2] (with DBC3333 50 mg/mL, drug 4000 μg/mL) it was “Insol”. Further, the Solubility result was “Insol” in data set [2] (setting [13]); “Insol” in data set [2] (diblock 0 mg/ml, drug 1 mg/ml); “soluble” in data set [2] (setting [14]); “soluble” in data set [2] (setting [15]); “soluble” in data set [2] (setting [16]); “Soluble” in data set [2] (setting [17]).

As to `CC(=O)O[C@H]1C(=O)[C@@]2(C)[C@H]([C@H](OC(=O)c3ccccc3)[C@]3(O)C[C@H](OC(=O)[C@H](O)[C@@H](NC(=O)c4ccccc4)c4ccccc4)C(C)=C1C3(C)C)[C@]1(OC(C)=O)CO[C@@H]1C[C@@H]2O` [Paclitaxel, paclitaxel], the Solubility in data set [5] (control, no diblock copolymer) came out at 2 µg/mL (≈ 2.34 µM); in data set [5] (setting [26]), 488 µg/mL (≈ 571 µM).

Take `C=C(C)[C@@H]1CCC(C)=C[C@H]1c1c(O)cc(CCCCC)cc1O` [CBD, cannabidiol]: the “Preparation of homogenous CMC gel” value in data set [3] (with DBC3333) is “allowed”; in data set [3] (with diblock copolymer (name withheld)) it was “allowed”; in data set [3] (without diblock copolymer), “not possible to prepare homogenous CMC gel preparations”. The Skin permeation result in data set [1] (CMC gel with diblock copolymer (name withheld) vs identical CBD content in Glaxal base) and in data set [1] (setting [6]) was “enhanced skin permeation” throughout. Besides, the Water solubility in data set [4] is about 1 µg/mL. Further, the Aqueous solubility entry in data set [2] (setting [27]) is “Insol”; in data set [2] (setting [28]), “Insol”; in data set [2] (setting [12]), “Insol”; in data set [2] (setting [29]), “Soluble”; in data set [2] (setting [30]) it was “Soluble”; in data set [2] (setting [23]), “Soluble”. In addition, the values for the Aqueous solubility entry in data set [2] (setting [24]) and in data set [2] (setting [25]) were “Partially” and “Insol”, respectively. Moreover, the Solubility entry in data set [2] (setting [13]) is given as “Insol”; in data set [2] (diblock 0 mg/ml, drug 1 mg/ml) it was “Insol”; in data set [2] (setting [14]), “soluble”; in data set [2] (setting [15]) it was “soluble”; in data set [2] (setting [16]), “Partially”; in data set [2] (setting [17]), “Insol”.

With `COc1cc(CNC(=O)CCCC/C=C/C(C)C)ccc1O` [Capsaicin, capsaicin], the “Preparation of homogenous CMC gel” value is listed as “allowed” in data set [3] (with PCL25) and “not possible to prepare homogenous CMC gel preparations” in data set [3] (without diblock copolymer). Besides, the Skin permeation result in data set [1] (CMC gel with PCL25 vs identical capsaicin content in Glaxal base) was “enhanced skin permeation”. Moreover, the Solubility in data set [5] (control, no diblock copolymer) was found to be 10 µg/mL (≈ 32.7 µM); in data set [5] (setting [26]), 506 µg/mL (≈ 1660 µM).

`CCCCCc1cc(O)c(C/C=C(\C)CCC=C(C)C)c(O)c1` [CBG, cannabigerol]: the Water solubility in data set [4] is about 1 µg/mL. The Aqueous solubility result is given as “Insol” in data set [2] (setting [27]); “Soluble” in data set [2] (setting [29]); “Soluble” in data set [2] (setting [30]); “Soluble” in data set [2] (setting [23]); “Partially” in data set [2] (setting [24]); “Insol” in data set [2] (setting [25]).

Regarding `CC(C)(C)NC(=O)[C@H]1CC[C@H]2[C@@H]3CC[C@H]4NC(=O)C=C[C@]4(C)[C@H]3CC[C@]12C` [finasteride], the “Preparation of homogenous CMC gel” value in data set [3] (with DBC3333) was “allowed”; in data set [3] (without diblock copolymer), “not possible to prepare homogenous CMC gel preparations”. The Skin permeation result in data set [1] (setting [6]) is given as “enhanced skin permeation”. Further, the Aqueous solubility entry in data set [2] (setting [27]) is given as “Insol”; in data set [2] (setting [28]) it was “Insol”; in data set [2] (setting [12]), “Insol”; in data set [2] (setting [29]), “Soluble”; in data set [2] (setting [30]), “Partially”; in data set [2] (setting [23]), “Insol”. Besides, the Aqueous solubility result in data set [2] (setting [24]) and in data set [2] (setting [25]) was “Insol” each time.

`CC(=O)O[C@@]12CO[C@@H]1C[C@H](O)[C@@]1(C)C(=O)[C@H](O)C3=C(C)[C@@H](OC(=O)[C@H](O)[C@@H](NC(=O)OC(C)(C)C)c4ccccc4)C[C@@](O)([C@@H](OC(=O)c4ccccc4)[C@H]21)C3(C)C` [docetaxel]: the “Preparation of homogenous CMC gel” value in data set [3] (with DBC3333) is “allowed”; in data set [3] (without diblock copolymer), “not possible to prepare homogenous CMC gel preparations”. Moreover, the Skin permeation entry in data set [1] (setting [6]) is “enhanced skin permeation”.
